# Measurements from patent US10253015B2, “Pyridinyl quinolinone derivatives as mutant-isocitrate dehydrogenase inhibitors” (FORMA TM2, Inc., priority 2014, dated 2019).
# How the values were obtained:
# [1] = test system: HCT116 isogenic IDH1-R132C mutant cells; test: Cellular 2-HG assay using HCT116 mutant IDH1 cells (R132C); format: cell-based; conditions: Homo sapiens, HCT-116; cellular 2-HG inhibition, 24 hours, RapidFire mass spectrometry; read-out: HCT IDH1 R132C Range IC50
# Experimental: HCT116 isogenic IDH1-R132H and IDH1-R132C mutant cells were cultured in growth media (McCoy's 5 A, 10% fetal bovine serum, 1× antibiotic-antimycotic solution and 0.3 mg/mL G418) in 5% CO2 in an incubator at 37° C. To prepare the assay, cells were trypsinized and resuspended in assay media (McCoy's 5 A with no L-glutamine, 10% fetal bovine serum, 1× antibiotic-antimycotic solution and 0.3 mg/mL G418). An aliquot of 10,000 cells/100 μL was transferred to each well of a clear 96-well tissue culture plate. The cells were incubated in 5% CO2 at 37° C. in an incubator overnight to allow for proper cell attachment. An aliquot of 50 μL of compound containing assay media were then added to each well and the assay plate was kept in 5% CO2 at 37° C. in an incubator for 24 hours. The media was then removed from each well and 150 μL of a methanol/water mixture (80/20 v/v) was added to each well. The plates were kept at −80° C. freezer overnight to allow for complete cell lysis. An aliquot of 125 μL of extracted supernatant was analyzed by RapidFire high-throughout-mass spectrometry (Agilent) to determine the cellular 2-HG level. The IC50 of a given compound was calculated by fitting the dose response curve of cellular 2-HG inhibition at a given concentration with the four parameter logistic equation
# [2] = molecular target: IDH1-R132C recombinant protein (Homo sapiens (Human), UniProt O75874, R132C); test: IDH1-R132C enzymatic assay; format: biochemical; conditions: inhibition of NADPH consumption, diaphorase/resazurin readout; read-out: Enzyme IDH1 R132C Range IC50
# Experimental: (§1) Assays were performed in a 384-well black plate. […] After the plate was centrifuged briefly, an aliquot of 10 μL of 2 mM α-ketoglutarate and 20 μM NADPH solution prepared in assay buffer was then added to each well and the reaction was maintained at 25° C. for 45 minutes. An aliquot of 10 μL of diaphorase solution (0.15 U/mL diaphorase and 30 μM Resazurin in assay buffer) was added to each well. […] The IC50 of a given compound was calculated by fitting the dose response curve of inhibition of NADPH consumption at a given concentration with the four parameter logistic equation.
# [3] = molecular target: IDH1-R132H recombinant protein (Homo sapiens (Human), UniProt O75874, R132H); test: IDH1-R132H enzymatic assay; format: biochemical; conditions: inhibition of NADPH consumption, diaphorase/resazurin readout; read-out: Enzyme IDH1 R132H Range IC50
# Experimental: as §1
# Chain of IDH1-R132H recombinant protein (O75874 whole entry R132H): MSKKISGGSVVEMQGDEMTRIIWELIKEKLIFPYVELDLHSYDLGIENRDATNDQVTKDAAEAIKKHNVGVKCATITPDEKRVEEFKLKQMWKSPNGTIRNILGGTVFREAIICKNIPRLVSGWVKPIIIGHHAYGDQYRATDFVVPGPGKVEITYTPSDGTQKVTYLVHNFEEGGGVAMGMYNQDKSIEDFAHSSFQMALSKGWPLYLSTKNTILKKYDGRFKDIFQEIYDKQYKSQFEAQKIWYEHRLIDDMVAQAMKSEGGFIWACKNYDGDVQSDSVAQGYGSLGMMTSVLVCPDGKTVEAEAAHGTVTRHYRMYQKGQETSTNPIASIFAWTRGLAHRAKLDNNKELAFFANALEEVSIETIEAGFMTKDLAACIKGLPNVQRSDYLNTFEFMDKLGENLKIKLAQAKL
# Chain of IDH1-R132C recombinant protein (O75874 whole entry R132C): as the sequence (O75874 whole entry R132H) above, with H132C counted along it
IC50 [2] [µM],IC50 [3] [µM],SMILES,IC50 [1] [µM]
–,–,"COc1cc(N[C@@H](C)c2cc3cc(Cl)ccc3[nH]c2=O)ncc1C#N [Compound I-1, 6-{[(1S)-1-(6-chloro-2-oxo-1,2-dihydroquinolin-3-yl)ethyl]amino}-4-methoxypyridine-3-carbonitrile]",0.1 to 1
1 to 10,1 to 10,"COc1cc(N[C@@H](C)c2cc3cc(Cl)ccc3n(C)c2=O)ncc1C#N [Compound I-2, 6-{[(1S)-1-(6-chloro-1-methyl-2-oxo-1,2-dihydroquinolin-3-yl)ethyl]amino}-4-methoxypyridine-3-carbonitrile]",–
1 to 10,< 0.1,"C[C@H](Nc1cc(N2CCOC2=O)ccn1)c1cc2cc(Cl)ccc2[nH]c1=O [Compound I-10, 6-chloro-3-[(1S)-1-{[4-(2-oxo-1,3-oxazolidin-3-yl)pyridin-2-yl]amino}ethyl]-1,2-dihydroquinolin-2-one]",–
–,–,"C[C@H](Nc1cccc(N2CCOC2=O)n1)c1cc2cc(Cl)ccc2[nH]c1=O [Compound I-11, 6-chloro-3-[(1S)-1-{[6-(2-oxo-1,3-oxazolidin-3-yl)pyridin-2-yl]amino}ethyl]-1,2-dihydroquinolin-2-one]",0.1 to 1
1 to 10,0.1 to 1,"C[C@H](Nc1cc(N2C(=O)OCC2(C)C)ccn1)c1cc2cc(Cl)ccc2[nH]c1=O [Compound I-13, 6-chloro-3-[(1S)-1-{[4-(4,4-dimethyl-2-oxo-1,3-oxazolidin-3-yl)pyridin-2-yl]amino}ethyl]-1,2-dihydroquinolin-2-one]",–
1 to 10,0.1 to 1,"CC(Nc1cc(N2C(=O)OC[C@@H]2C(C)C)ccn1)c1cc2cc(Cl)ccc2[nH]c1=O (stereo partly drawn) [Compound I-18, 6-chloro-3-[1-({4-[(4S)-2-oxo-4-(propan-2-yl)-1,3-oxazolidin-3-yl]pyridin-2-yl}amino)ethyl]-1,2-dihydroquinolin-2-one]",–
1 to 10,0.1 to 1,"CC(C)[C@H]1COC(=O)N1c1cccc(N[C@@H](C)c2cc3cc(Cl)ccc3[nH]c2=O)n1 [Compound I-19, 6-chloro-3-[(1S)-1-({6-[(4S)-2-oxo-4-(propan-2-yl)-1,3-oxazolidin-3-yl]pyridin-2-yl}amino)ethyl]-1,2-dihydroquinolin-2-one]",–
–,–,"COc1cc2[nH]c(=O)c([C@H](C)Nc3ccc(C#N)c(C)n3)cc2cc1Cl [Compound I-23, 6-{[(1S)-1-(6-chloro-7-methoxy-2-oxo-1,2-dihydroquinolin-3-yl)ethyl]amino}-2-methylpyridine-3-carbonitrile]",0.01 to 0.1
0.1 to 1,< 0.1,"CC(=O)Nc1ccnc(N[C@@H](C)c2cc3cc(Cl)ccc3[nH]c2=O)c1F [Compound I-34, N-(2-{[(1S)-1-(6-chloro-2-oxo-1,2-dihydroquinolin-3-yl)ethyl]amino}-3-fluoropyridin-4-yl)acetamide]",–
> 10,1 to 10,"C[C@H](Nc1nccc(NCCO)c1F)c1cc2cc(Cl)ccc2[nH]c1=O [Compound I-36, 6-chloro-3-[(1S)-1-({3-fluoro-4-[(2-hydroxyethyl)amino]pyridin-2-yl}amino)ethyl]-1,2-dihydroquinolin-2-one]",–
0.1 to 1,1 to 10,"Cc1cc(-c2ccnc(N[C@@H](C)c3cc4cc(Cl)ccc4[nH]c3=O)c2)n(C)n1 [Compound I-39, 6-chloro-3-[(1S)-1-{[4-(1,3-dimethyl-1H-pyrazol-5-yl)pyridin-2-yl]amino}ethyl]-1,2-dihydroquinolin-2-one]",–
1 to 10,1 to 10,"C[C@H](Nc1cc(-c2ccn[nH]2)ccn1)c1cc2cc(Cl)ccc2[nH]c1=O [Compound I-41, 6-chloro-3-[(1S)-1-{[4-(1H-pyrazol-5-yl)pyridin-2-yl]amino}ethyl]-1,2-dihydroquinolin-2-one]",–
1 to 10,1 to 10,"CC(C)Cn1nccc1-c1ccnc(N[C@@H](C)c2cc3cc(Cl)ccc3[nH]c2=O)c1 [Compound I-43, 6-chloro-3-[(1S)-1-({4-[1-(2-methylpropyl)-1H-pyrazol-5-yl]pyridin-2-yl}amino)ethyl]-1,2-dihydroquinolin-2-one]",–
1 to 10,1 to 10,"CC(C)n1nccc1-c1ccnc(N[C@@H](C)c2cc3cc(Cl)ccc3[nH]c2=O)c1 [Compound I-44, 6-chloro-3-[(1S)-1-({4-[1-(propan-2-yl)-1H-pyrazol-5-yl]pyridin-2-yl}amino)ethyl]-1,2-dihydroquinolin-2-one]",–
1 to 10,1 to 10,"C[C@H](Nc1cc(-c2ccnn2C2CCCCO2)ccn1)c1cc2cc(Cl)ccc2[nH]c1=O (stereo partly drawn) [Compound I-47, 6-chloro-3-[(1S)-1-({4-[1-(oxan-2-yl)-1H-pyrazol-5-yl]pyridin-2-yl}amino)ethyl]-1,2-dihydroquinolin-2-one]",–
1 to 10,1 to 10,"Cc1cscc1-c1ccnc(N[C@@H](C)c2cc3cc(Cl)ccc3[nH]c2=O)c1 [Compound I-48, 6-chloro-3-[(1S)-1-{[4-(4-methylthiophen-3-yl)pyridin-2-yl]amino}ethyl]-1,2-dihydroquinolin-2-one]",–
1 to 10,1 to 10,"C[C@H](Nc1cc(-c2ccnn2C)ccn1)c1cc2cc(Cl)ccc2[nH]c1=O [Compound I-49, 6-chloro-3-[(1S)-1-{[4-(1-methyl-1H-pyrazol-5-yl)pyridin-2-yl]amino}ethyl]-1,2-dihydroquinolin-2-one]",–
> 10,1 to 10,"C[C@H](Nc1cc(-c2c[nH]nc2C(F)(F)F)ccn1)c1cc2cc(Cl)ccc2[nH]c1=O [Compound I-50, 6-chloro-3-[(1S)-1-({4-[3-(trifluoromethyl)-1H-pyrazol-4-yl]pyridin-2-yl}amino)ethyl]-1,2-dihydroquinolin-2-one]",–
> 10,1 to 10,"Cc1cc(-c2ccnc(N[C@@H](C)c3cc4cc(Cl)ccc4[nH]c3=O)c2F)n(C)n1 [Compound I-52, 6-chloro-3-[(1S)-1-{[4-(1,3-dimethyl-1H-pyrazol-5-yl)-3-fluoropyridin-2-yl]amino}ethyl]-1,2-dihydroquinolin-2-one]",–
> 10,1 to 10,"C[C@H](Nc1nccc(-c2ccnn2C)c1F)c1cc2cc(Cl)ccc2[nH]c1=O [Compound I-53, 6-chloro-3-[(1S)-1-{[3-fluoro-4-(1-methyl-1H-pyrazol-5-yl)pyridin-2-yl]amino}ethyl]-1,2-dihydroquinolin-2-one]",–
> 10,> 10,"CC(C)Cn1nccc1-c1ccnc(N[C@@H](C)c2cc3cc(Cl)ccc3[nH]c2=O)c1F [Compound I-56, 6-chloro-3-[(1S)-1-({3-fluoro-4-[1-(2-methylpropyl)-1H-pyrazol-5-yl]pyridin-2-yl}amino)ethyl]-1,2-dihydroquinolin-2-one]",–
1 to 10,0.1 to 1,"Cc1cc(NCc2cc3cc(Cl)ccc3[nH]c2=O)ncc1C#N [Compound I-59, 6-{[(6-chloro-2-oxo-1,2-dihydroquinolin-3-yl)methyl]amino}-4-methylpyridine-3-carbonitrile]",–
> 10,0.1 to 1,"N#Cc1ccc(NCc2cc3cc(Cl)ccc3[nH]c2=O)nc1 [Compound I-67, 6-{[(6-chloro-2-oxo-1,2-dihydroquinolin-3-yl)methyl]amino}pyridine-3-carbonitrile]",–
–,0.1 to 1,"Cc1cc2cc(CNc3ccc(C#N)cn3)c(=O)[nH]c2cc1C [Compound I-80, 6-{[(6,7-dimethyl-2-oxo-1,2-dihydroquinolin-3-yl)methyl]amino}pyridine-3-carbonitrile]",–
–,1 to 10,"COc1ccc2[nH]c(=O)c(CNc3ccc(C#N)cn3)cc2c1 [Compound I-81, 6-{[(6-methoxy-2-oxo-1,2-dihydroquinolin-3-yl)methyl]amino}pyridine-3-carbonitrile]",–
–,> 10,"COc1ccc2[nH]c(=O)c(CNc3cc(C)ccn3)cc2c1 [Compound I-82, 6-methoxy-3-{[(4-methylpyridin-2-yl)amino]methyl}-1,2-dihydroquinolin-2-one]",–
–,0.1 to 1,"Cc1nc(NCc2cc3cc(Cl)c(OCc4ccccn4)cc3[nH]c2=O)ccc1C#N [Compound I-84, 6-({[6-chloro-2-oxo-7-(pyridin-2-ylmethoxy)-1,2-dihydroquinolin-3-yl]methyl}amino)-2-methylpyridine-3-carbonitrile]",–
0.1 to 1,< 0.1,"Cc1nc(NCc2cc3cc(Cl)c(OCCN4CCN(S(C)(=O)=O)CC4)cc3[nH]c2=O)ccc1C#N [Compound I-85, 6-[({6-chloro-7-[2-(4-methanesulfonylpiperazin-1-yl)ethoxy]-2-oxo-1,2-dihydroquinolin-3-yl}methyl)amino]-2-methylpyridine-3-carbonitrile]",–
